Test results: patent publication US20240316052A1, “MITOCHONDRIAL SUPERCOMPLEX FORMATION PROMOTER, COMPOSITION FOR MAINTAINING OR IMPROVING MUSCULAR STRENGTH, THERAPEUTIC OR PREVENTATIVE PHARMACEUTICAL COMPOSITION FOR DISEASES WHICH DECREASE MITOCHONDRIAL FUNCTION OR MUSCULAR FUNCTION, AND SCREENING METHOD FOR SUBSTANCES WHICH CONTRIBUTE TO …” (TOKYO METROPOLITAN GERIATRIC HOSPITAL AND INSTITUTE OF …, priority 2021, published 2024)
“Also recorded” adds a separate entry of the source. Read-outs that look alike come from different tables or passages of the source.

Experiments:
[1] = tested on: respiratory chain supercomplexes I+III2+IV, I+III2, III2+IV; experiment: BN-PAGE of mitochondrial fractions extracted from C2C12 cells; type: cell-based, mouse; conditions: compound added, compared to DMSO
DBA/2CrSc1 mice [2] = experiment: Wire-hang test in mice; type: in vivo; conditions: intraperitoneal, compared to DMSO-treated group
Experimental: (§1) Seven-week-old DBA/2CrSc1 mice were injected intraperitoneally with MNS, or DMSO as a control. […] In addition, the formation of respiratory chain supercomplexes by BN-PAGE were compared using mitochondrial fractions extracted from the extensor digitorum longus and soleus muscles of the mice in each group.

DBA/2CrSc1 mice [3] = experiment: Treadmill test in mice; type: in vivo; conditions: intraperitoneal, compared to DMSO-treated group
Experimental: as §1

[4] = tested on: mitochondrial respiratory chain supercomplex formation (NDUFB8-AcGFP / COX8A-DsRed monomer); experiment: FRET (cFRET/Donor) in C2C12 cells stably co-expressing NDUFB8-AcGFP and COX8A-DsRed monomer; type: cell-based, mouse
From the text: In addition, the protein in which the subunit NDUFB8 of respiratory chain complex I was labeled with AcGFP, and the protein in which the subunit COX8A of respiratory chain complex IV labeled with DsRed monomer, were co-expressed, whereby the fluorescence of DsRed monomer was detected at the excitation wavelength of AcGFP, and the FRET efficiency can be calculated (FIG. 2B).
FRET signals between respiratory chain complex subunits in stably expressing cells were examined using C2C12 cells stably expressing both NDUFB8-AcGFP and COX8A-DsRed monomer and C2C12 cells stably expressing both UQCR11-AcGFP and ATP5F1c-DsRed monomer.
The sequences of siRNAs are as follows.
In the primary screening, the cFRET/Donor of living cells with 40 μM of each 1280 compound was measured using the C2C12 expressing cells stably co-expressing NDUFB8-AcGFP and COX8A-DsRed monomer established in this study (FIG. 5B). In the secondary screening, cFRET/Donor was measured by adding 40, 20, 10, 2.5, or 0.6 μM of each compound.
MNS was added to stably expressed C2C12 cells stepwise from low to high concentrations, and the cFRET/Donor was measured. […] In the following experiments, the respiratory chain supercomplex was examined in C2C12 cells under the condition of 1 μM addition.

C2C12 cells = experiment: Oxygen consumption, XFp Extracellular Flux Analyzer; type: cell-based, mouse; conditions: 1 μM, compared to solvent-only control
Experimental: Oxygen consumption rate (OCR) was measured as follows. The C2C12 cells were seeded (5×10^3 cells/well) in […] (Agilent Tech, CA, USA) and incubated overnight before measuring OCR and ECAR. One hour before the measurement, the medium was replaced with XF base medium containing 1 mM sodium pyruvate, 2 mM […] and 25 mM glucose (Agilent Tech). Basal respiration, ATP production, and maximal respiration (spare respiratory capacity) of C2C12 cells were measured using XFp Extracellular Flux Analyzer (Agilent Tech) and Mito Stress Kit for XFp (Agilent Tech). The drugs were added in the following order: 1.0 μM oligomycin, 0.5 μM carbonyl cyanide-p-trifluoromethoxyphenylhydrazone, and 0.5 μM rotenone. The baseline (basal) OCR was measured three times before and after the addition of the drugs.

[5] = Toxicity and body weight in mice, intraperitoneal injection; conditions: seven-week-old DBA/2CrSc1 mice, vs DMSO
Experimental: as §1

mitochondrial function = conditions: already reported; cited from earlier work
[6] = tested on: respiratory chain supercomplexes I+III2+IVn (n=1-2), I+III2, III2+IV; experiment: BN-PAGE of mitochondrial fractions from extensor digitorum longus and soleus muscles of mice; type: in vivo; conditions: mitochondria of both extensor digitorum longus and soleus muscles, compared to DMSO
Experimental: as §1

Syk = Syk mRNA and protein expression after siRNA; type: cell-based, mouse; conditions: C2C12 cells
From the text: Both mRNA and protein expression levels of Syk in C2C12 cells were suppressed by the above #1 and #2 siRNAs. The above siSyk was transfected into cells stably expressing NDUFB8-AcGFP and COX8A-DsRed monomer, and FRET signals were examined. FRET efficiency was increased in siSyk treatment, compared to siControl treatment (FIG. 7A). The formation of respiratory chain supercomplexes was compared using the same siRNA and mitochondrial fractions extracted from C2C12 cells in which Syk expression was suppressed, according to BN-PAGE. […] Oxygen consumption of C2C12 cells in siControl or siSyk treatment was measured using XFp Extracellular Flux Analyzer.

[7] = primary 40 μM; secondary 40, 20, 10, 2.5, 0.6 μM; then BN-PAGE
[8] = compound added, compared to DMSO

## COc1ccc(-c2cc3nccn3c(Nc3ncccc3C(N)=O)n2)cc1OC [BAY61-3606, 2-[[7-(3,4-dimethoxyphenyl)imidazo[1,2-c]pyrimidin-5-yl]amino]pyridine-3-carboxamide]
[1]
  formation of respiratory chain supercomplexes I+III2+IV, I+III2, III2+IV (BN-PAGE): increased
DBA/2CrSc1 mice [2]
  time holding the wire: significantly prolonged
DBA/2CrSc1 mice [3]
  running distance: significantly longer
  running time: significantly longer
[4]; stably expressed C2C12 cells, added stepwise from low to high concentrations; read-out: 50% effective concentration (EC50) from cFRET/Donor dose-response curve
  EC50: 1000 nM
C2C12 cells
  ATP production: significant increases
  basal respiration: significant increases
  maximal respiration (spare respiratory capacity): significant increases
[5]
  change in body weight: no change
  toxicity: no significant toxicity

## CC1(C)CCC2=C(O1)c1ccccc1C(=O)C2=O [Beta-lapachone]
Mitochondrial function
  mitochondrial function: improve mitochondrial function
[4]; [7]
  outcome of three-step screening (FRET and BN-PAGE) of LOPAC 1280 for compounds that promote respiratory chain supercomplex formation: screened

## O=[N+]([O-])/C=C/c1ccc2c(c1)OCO2 [MNS, 3,4-methylenedioxy-β-nitrostyrene]
[1]
  formation of respiratory chain supercomplexes I+III2+IV, I+III2, III2+IV (BN-PAGE): increased
DBA/2CrSc1 mice [2]
  time holding the wire: significantly prolonged
[6]
  formation of respiratory chain supercomplexes I+III2+IVn (n=1-2), I+III2, III2+IV (BN-PAGE): increased
DBA/2CrSc1 mice [3]
  running distance: significantly longer
  running time: significantly longer
[4]; [8]
  FRET efficiency between subunit fluorescent fusion proteins of respiratory chain complexes I and IV: increase
  corrected value of cFRET/Donor: significantly increased; also recorded: improvement
[4]; [7]
  outcome of three-step screening (FRET and BN-PAGE) of LOPAC 1280 for compounds that promote respiratory chain supercomplex formation: screened
[4]; read-out: 50% effective concentration (EC50) from cFRET/Donor dose-response curve; stably expressed C2C12 cells, added stepwise from low to high concentrations
  EC50: 574 nM
C2C12 cells
  basal respiration: significant increases
  maximal respiration (spare respiratory capacity): significant increases
[5]
  change in body weight: no change
  toxicity: no significant toxicity

## siSyk #1: siRNA against Syk, sense strand SEQ ID NO:1 and antisense strand SEQ ID NO:2 (sense AAUGAAUUCAACAUACAGGGA; antisense CCUGUAUGUUGAAUUCAUUGA; listed as RNA, chemistry not given here)
Syk
  mRNA expression level of Syk: suppressed
  protein expression level of Syk: suppressed

## siSyk #2: siRNA against Syk, sense strand SEQ ID NO:3 and antisense strand SEQ ID NO:4 (sense UUAAUCUUGACAGUAAGACAC; antisense GUCUUACUGUCAAGAUUAAUU; listed as RNA, chemistry not given here)
Syk
  mRNA expression level of Syk: suppressed
  protein expression level of Syk: suppressed
